Test results reported in patent publication US20060069132A1, “Azolecarboxamide herbicides” (priority 2004, published 2006).

Tests used:
barnyardgrass [1] = test: Test B pre-/postemergence herbicide test; assay type: in vivo, Echinochloa crus-galli; conditions: for Barnyardgrass plant response rating: postemergence, visual rating, scale 0 (no effect) to 100 (complete control)
Summary of the method: (§1)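 Seeds were planted and treated preemergence with compounds formulated in a non-phytotoxic solvent mixture containing surfactant, while plants at the 1- to 4-leaf stage (2 to 18 cm) received postemergence sprays. Flooded paddy plants were grown to the 2-leaf stage. After 13 to 15 days in a greenhouse, injury was visually rated 0–100 against untreated controls.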

Surinam grass = test: Test B pre-/postemergence herbicide test; assay type: in vivo, Urochloa decumbens; conditions: for Surinam Grass plant response rating: postemergence, visual rating, scale 0 (no effect) to 100 (complete control)
Summary of the method: (§2)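 Plants compared with untreated controls 13–15 days post-treatment and given a visual 0–100 injury score. Applications: preemergence to seeds; postemergence at 1- to 4-leaf (2–18 cm); paddy species flooded, 2-leaf stage. Vehicle non-phytotoxic, surfactant included.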

cocklebur = test: Test B pre-/postemergence herbicide test; assay type: in vivo, Xanthium strumarium; conditions: for Cocklebur plant response rating: postemergence, visual rating, scale 0 (no effect) to 100 (complete control)
Summary of the method: as §1

corn = test: Test B pre-/postemergence herbicide test; assay type: in vivo, Zea mays; conditions: for Corn plant response rating: postemergence, visual rating, scale 0 (no effect) to 100 (complete control)
Summary of the method: as §2

large crabgrass = test: Test B pre-/postemergence herbicide test; assay type: in vivo, Digitaria sanguinalis; conditions: for Crabgrass, Large plant response rating: postemergence, visual rating, scale 0 (no effect) to 100 (complete control)
Summary of the method: as §2

giant foxtail = test: Test B pre-/postemergence herbicide test; assay type: in vivo, Setaria faberi; conditions: for Foxtail, Giant plant response rating: postemergence, visual rating, scale 0 (no effect) to 100 (complete control)
Summary of the method: as §2

lambsquarters = test: Test B pre-/postemergence herbicide test; assay type: in vivo, Chenopodium album; conditions: for Lambsquarters plant response rating: postemergence, visual rating, scale 0 (no effect) to 100 (complete control)
Summary of the method: as §2

morningglory = test: Test B pre-/postemergence herbicide test; assay type: in vivo, Ipomoea coccinea; conditions: for Morningglory plant response rating: postemergence, visual rating, scale 0 (no effect) to 100 (complete control)
Summary of the method: as §1

pigweed = test: Test B pre-/postemergence herbicide test; assay type: in vivo, Amaranthus retroflexus; conditions: for Pigweed plant response rating: postemergence, visual rating, scale 0 (no effect) to 100 (complete control)
Summary of the method: as §2

blackgrass = test: Test B postemergence herbicide test; assay type: in vivo, Alopecurus myosuroides; conditions: postemergence, visual rating, scale 0 (no effect) to 100 (complete control)
Summary of the method: (§3)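 Postemergence plants were sprayed with formulated test chemicals at 2 to 18 cm height (1- to 4-leaf stage); paddy species were grown to the 2-leaf stage. After 13 to 15 days in a greenhouse, injury was rated visually against untreated controls on a 0–100 scale (0 = no effect, 100 = complete control).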

wheat = test: Test B postemergence herbicide test; assay type: in vivo, Triticum aestivum; design: key to Wheat plant response rating: 0 = no effect, 100 = complete control; conditions: postemergence, visual rating, scale 0 (no effect) to 100 (complete control)
Summary of the method: (§4)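 Each value is a visual 0–100 response rating taken against controls 13 to 15 days after treatment in the greenhouse. Plants received formulated chemical postemergence at the 1- to 4-leaf stage or, in flooded paddy, at the 2-leaf stage.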

wild oat = test: Test B postemergence herbicide test; assay type: in vivo, Avena fatua; conditions: postemergence, visual rating, scale 0 (no effect) to 100 (complete control)
Summary of the method: as §4

rice = test: Test B flooded paddy test; assay type: in vivo, Oryza sativa; conditions: 1000 g ai/ha, visual rating, scale 0 to 100 (0 no effect, 100 complete control), 13 to 15 days
Summary of the method: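 Formulated test chemicals went onto postemergence plants measuring 2 to 18 cm, at one to four leaves. For the paddy assay, species had reached two leaves. Scoring took place 13–15 days later by eye, relative to untreated plants, using 0 for no effect up to 100 for full control.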

[2] = system: small flower umbrella sedge; test: Test B flooded paddy test; assay type: in vivo, Cyperus difformis; conditions: 1000 g ai/ha, visual rating, scale 0 to 100 (0 no effect, 100 complete control), 13 to 15 days
Summary of the method: as §3

ducksalad = test: Test B flooded paddy test; assay type: in vivo, Heteranthera limosa; conditions: 1000 g ai/ha, visual rating, scale 0 to 100 (0 no effect, 100 complete control), 13 to 15 days
Summary of the method: as §3

barnyardgrass [3] = test: Test B flooded paddy test; assay type: in vivo, Echinochloa crus-galli; conditions: 1000 g ai/ha, visual rating, scale 0 to 100 (0 no effect, 100 complete control), 13 to 15 days
Summary of the method: as §3

[4] = 125 g ai/ha, 0 = no effect, 100 = complete control, preemergence
[5] = 500 g ai/ha, visual rating 0-100, 0 no effect, 100 complete control, preemergence

## CC(=NO)c1cccc(NC(=O)c2sc(C(C)(C)C)nc2C)c1 [Compound 195]
Barnyardgrass [1]; [4]
  Barnyardgrass plant response rating (0 to 100 scale): 40
Barnyardgrass [1]; [5]
  Plant response rating, Barnyardgrass: 90
Barnyardgrass [1]; 125 g ai/ha
  Barnyardgrass plant response rating: 40
Barnyardgrass [1]; 500 g ai/ha
  Barnyardgrass plant response rating: 90
Surinam grass; [4]
  Surinam Grass plant response rating (0 to 100 scale): 10
Surinam grass; [5]
  Plant response rating, Surinam Grass: 30
Surinam grass; 125 g ai/ha
  Surinam Grass plant response rating: 10
Surinam grass; 500 g ai/ha
  Surinam Grass plant response rating: 30
cocklebur; [4]
  Cocklebur plant response rating (0 to 100 scale): 0
cocklebur; [5]
  Plant response rating, Cocklebur: 0
cocklebur; 125 g ai/ha
  Cocklebur plant response rating: 30
cocklebur; 500 g ai/ha
  Cocklebur plant response rating: 60
corn; [4]
  Corn plant response rating (0 to 100 scale): 0
corn; [5]
  Plant response rating, Corn: 0
corn; 125 g ai/ha
  Corn plant response rating: 20
corn; 500 g ai/ha
  Corn plant response rating: 30
Large crabgrass; [4]
  Crabgrass, Large plant response rating (0 to 100 scale): 80
Large crabgrass; [5]
  Plant response rating, Crabgrass, Large: 100
Large crabgrass; 125 g ai/ha
  Crabgrass, Large plant response rating: 20
Large crabgrass; 500 g ai/ha
  Crabgrass, Large plant response rating: 50
Giant foxtail; [4]
  Foxtail, Giant plant response rating (0 to 100 scale): 20
Giant foxtail; [5]
  Plant response rating, Foxtail, Giant: 60
Giant foxtail; 125 g ai/ha
  Foxtail, Giant plant response rating: 20
Giant foxtail; 500 g ai/ha
  Foxtail, Giant plant response rating: 20
lambsquarters; [4]
  Lambsquarters plant response rating (0 to 100 scale): 0
lambsquarters; [5]
  Plant response rating, Lambsquarters: 80
lambsquarters; 125 g ai/ha
  Lambsquarters plant response rating: 0
lambsquarters; 500 g ai/ha
  Lambsquarters plant response rating: 60
morningglory; [4]
  Morningglory plant response rating (0 to 100 scale): 10
morningglory; [5]
  Plant response rating, Morningglory: 40
morningglory; 125 g ai/ha
  Morningglory plant response rating: 0
morningglory; 500 g ai/ha
  Morningglory plant response rating: 60
pigweed; [4]
  Pigweed plant response rating (0 to 100 scale): 90
pigweed; [5]
  Plant response rating, Pigweed: 90
pigweed; 125 g ai/ha
  Pigweed plant response rating: 70
pigweed; 500 g ai/ha
  Pigweed plant response rating: 80
blackgrass; 125 g ai/ha
  Blackgrass plant response rating: 0
blackgrass; 500 g ai/ha
  Blackgrass plant response rating: 10
wheat; 125 g ai/ha
  Wheat plant response rating: 10
wheat; 500 g ai/ha
  Wheat plant response rating: 20
Wild oat; 125 g ai/ha
  Oat, Wild plant response rating: 10
Wild oat; 500 g ai/ha
  Oat, Wild plant response rating: 20
rice
  Rice plant response rating: 30
[2]
  Sedge, Umbrella plant response rating: 50
ducksalad
  Ducksalad plant response rating: 40
Barnyardgrass [3]
  Barnyardgrass plant response rating: 60
